Values of other authors as cited in patent US20230175054A1, “LASH METHODS FOR SINGLE MOLECULE SEQUENCING & TARGET NUCLEIC ACID DETECTION” (SARMAL, INC., priority 2020, published 2023).

Key:
[1] = molecular target: T1, Apoaequorin (Aequorea victoria, UniProt P02592); settings: for λem (nm): luminescence emission with Apoaequorin; for Half-rise time / Relative intensity / Relative luminescence capacity: with Apoaequorin
T1 sequence (P02592 8-196): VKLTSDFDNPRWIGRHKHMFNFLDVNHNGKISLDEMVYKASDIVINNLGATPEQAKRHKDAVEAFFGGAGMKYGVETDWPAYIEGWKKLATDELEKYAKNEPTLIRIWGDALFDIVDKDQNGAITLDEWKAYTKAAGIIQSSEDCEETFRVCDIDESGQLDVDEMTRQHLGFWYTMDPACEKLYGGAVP

[2] = molecular target: T2, Renilla Luciferase (Renilla reniformis, UniProt P27652); settings: for λem (nm): luminescence emission with Renilla Luciferase; for Initial Intensity (%) / Total Light (%): with Renilla Luciferase
T2 sequence (P27652 1-311): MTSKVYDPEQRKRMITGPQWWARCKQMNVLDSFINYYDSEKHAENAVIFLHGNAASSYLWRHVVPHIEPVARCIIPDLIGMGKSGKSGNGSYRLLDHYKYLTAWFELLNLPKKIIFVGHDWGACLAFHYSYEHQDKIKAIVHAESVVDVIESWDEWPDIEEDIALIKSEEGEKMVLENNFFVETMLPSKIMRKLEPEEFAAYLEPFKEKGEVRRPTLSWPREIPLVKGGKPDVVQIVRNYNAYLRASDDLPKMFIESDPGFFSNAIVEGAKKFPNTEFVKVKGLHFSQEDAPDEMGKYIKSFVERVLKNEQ

| Compound | λem (nm) [1] | Half-rise time [1] | Relative intensity [1] | Relative luminescence capacity [1] | λem (nm) [2] | Initial Intensity (%) [2] | Total Light (%) [2] |
| --- | --- | --- | --- | --- | --- | --- | --- |
| Oc1ccc(-c2cn3c(O)c(Cc4ccc(F)cc4)nc3c(CC3CCCC3)n2)cc1 [fcp, Coelenterazine fcp] | 452 nm | 0.4 to 0.8 s | 135 | 0.57 | – | – | – |
| O=c1c(Cc2ccc(I)cc2)nc2c(Cc3ccccc3)[nH]c(-c3ccc(O)cc3)cn1-2 [i, Coelenterazine i] | 476 nm | 8 s | 0.03 | 0.70 | – | – | – |
| Oc1ccc(Cc2nc3c(Cc4ccccc4)nc(-c4ccc(O)cc4)cn3c2O)cc1 [Native, Coelenterazine] | 465 nm | 0.4 to 0.8 s | 1.00 | 1.0 | – | – | – |
| Oc1ccc(-c2cn3c(O)c(Cc4ccccc4)nc3c(CC3CCCC3)n2)cc1 [hcp, Coelenterazine hcp] | 444 nm | – | 190 | 0.67 | – | – | – |
| Coelenterazine ip | 441 nm | 1 s | 47 | 0.54 | – | – | – |
| Oc1ccc(Cc2nc3c(CC4CCCC4)nc(-c4ccc(O)cc4)cn3c2O)cc1 [Cp, Coelenterazine cp] | 442 nm | 0.15 to 0.3 s | 15 | 0.95 | 470 nm | 135% | 23% |
| Coelenterazine n | 467 nm | 5 s | 0.01 | 0.26 | – | – | – |
| Coelenterazine f | 473 nm | 0.4 to 0.8 s | 18 | 0.80 | 473 nm | 45% | 28% |
| Coelenterazine h | 475 nm | 0.4 to 0.8 s | 10 | 0.82 | – | – | – |
